Measured values from patent publication US6569846B1, “Palladium-substituted bacteriochlorophyll derivatives and use thereof” (Yeda Research and Development Co. Ltd., priority 1998, dated 2003).

Test system: M2R mouse melanoma cells
Experiment: Phototoxicity on M2R cells (Example 10, [3H]-thymidine incorporation)
Format: cell-based
Settings: pigments dissolved directly in culture medium containing 10% serum
Experimental: The diluted pigments were added and the cells were incubated in the dark for four hours at 37° C. Prior to illumination, the cells were washed once and replaced with fresh culture medium. The plates were then illuminated from the bottom for 10 minutes at room temperature and placed in the culture incubator at 37° C. in the dark. […] The following control systems were used: Dark control—untreated cells kept in the dark; Light control—cells not treated with sensitizer that were illuminated; Dark toxicity—cells treated with pigment but kept in the dark.

## Pd-Bacteriopheophorbide a ethyl ester [Pd-BPheid-ethyl ester, reference compound]
  concentration up to which not active at all (highest concentration tested): > 1 µM
